Test results taken from ChEMBL document CHEMBL1828590 (J Med Chem, 2011).

Assays:
A2780 = experiment: Antiproliferative activity against human A2780 cells after 96 hrs by celltiter 96 assay; assay type: functional, cell-based; conditions: A2780, 96 h
HCT-116 [1] = experiment: Antitumor activity against human HCT116 cells xenografted in nude BALB/c mouse assessed as tumor growth inhibition at 50 mg/kg, po qd for 21 days measured on day 18; assay type: functional; conditions: read-out: TGI
HCT-116 [2] = experiment: Antitumor activity against human HCT116 cells xenografted in nude BALB/c mouse assessed as tumor growth inhibition at 50 mg/kg, po qd for 21 days measured on day 15; assay type: functional; conditions: read-out: TGI
Mus musculus [3] = experiment: Toxicity in nude BALB/c mouse xenografted with human HCT116 cells assessed as mouse survival at 50 mg/kg, po QD for 21 days measured on day 22; assay type: organism-based, HCT-116; set-up: dose 50 mg/kg, route oral; conditions: in vivo, 504 h
Mus musculus [4] = experiment: Toxicity in nude BALB/c mouse xenografted with human HCT116 cells assessed as body weight loss at 50 mg/kg, po QD for 21 days measured on day 12; assay type: organism-based, HCT-116; set-up: dose 50 mg/kg, route oral; conditions: in vivo, 504 h
HCT-116 [5] = experiment: Antiproliferative activity against human HCT116 cells after 96 hrs by celltiter 96 assay; assay type: functional, cell-based; conditions: HCT-116, 96 h
PC-3 = experiment: Antiproliferative activity against human PC3 cells after 96 hrs by celltiter 96 assay; assay type: functional, cell-based; conditions: PC-3, 96 h
[6] = Oral bioavailability in nude BALB/c mouse at 50 mg/kg; assay type: ADME, organism-based; conditions: in vivo
COLO 205 = experiment: Antiproliferative activity against human COLO205 cells after 96 hrs by celltiter 96 assay; assay type: functional, cell-based; conditions: COLO 205, 96 h

For `Cc1[nH]c2ccccc2c1CCNCc1ccc(/C=C/C(=O)NO)cc1` [PANOBINOSTAT], the IC50 (A2780) was 35 nM, the inhibition in vivo at 50 mg/kg (HCT-116 [1]) was 61% and the inhibition in vivo at 50 mg/kg (HCT-116 [2]) was 41%. The Activity (Mus musculus [3]) was “Non-toxic”, the Activity (Mus musculus [4]) was 17.3% and the IC50 (HCT-116 [5]) was 48 nM. The IC50 (PC-3) was 24 nM, the bioavailability [6] was 4.6% and the IC50 (COLO 205) was 18 nM.
